For 36 compounds, DC50 results are on record in US20260306640A1, “TECHNOLOGIES TARGETING CELL STATES” (Auron Therapeutics, Inc., priority 2023, published 2026).

The structures appear in SMILES notation. Some results are limits rather than exact numbers.

The test deals with KAT2A (Homo sapiens, UniProt Q92830). As to the kind of experiment: KAT2A degradation, Western Blot (Jess), MOLM-13 cells. It is filed as cell-based. Also noted: degrader, Western blot. Conditions: MOLM-13 cells, KAT2A, 24 h, Western Blot, vs DMSO; read-out: KAT2A MOLM-13 DC50. The protocol: MOLM-13 cells or NCI-H1048 cells were used for Western Blot analysis of KAT2A degradation. KAT2B degradation can be measured in a similar manner with NCI-H1048 cells.
KAT2A, sequence (Q92830 whole entry): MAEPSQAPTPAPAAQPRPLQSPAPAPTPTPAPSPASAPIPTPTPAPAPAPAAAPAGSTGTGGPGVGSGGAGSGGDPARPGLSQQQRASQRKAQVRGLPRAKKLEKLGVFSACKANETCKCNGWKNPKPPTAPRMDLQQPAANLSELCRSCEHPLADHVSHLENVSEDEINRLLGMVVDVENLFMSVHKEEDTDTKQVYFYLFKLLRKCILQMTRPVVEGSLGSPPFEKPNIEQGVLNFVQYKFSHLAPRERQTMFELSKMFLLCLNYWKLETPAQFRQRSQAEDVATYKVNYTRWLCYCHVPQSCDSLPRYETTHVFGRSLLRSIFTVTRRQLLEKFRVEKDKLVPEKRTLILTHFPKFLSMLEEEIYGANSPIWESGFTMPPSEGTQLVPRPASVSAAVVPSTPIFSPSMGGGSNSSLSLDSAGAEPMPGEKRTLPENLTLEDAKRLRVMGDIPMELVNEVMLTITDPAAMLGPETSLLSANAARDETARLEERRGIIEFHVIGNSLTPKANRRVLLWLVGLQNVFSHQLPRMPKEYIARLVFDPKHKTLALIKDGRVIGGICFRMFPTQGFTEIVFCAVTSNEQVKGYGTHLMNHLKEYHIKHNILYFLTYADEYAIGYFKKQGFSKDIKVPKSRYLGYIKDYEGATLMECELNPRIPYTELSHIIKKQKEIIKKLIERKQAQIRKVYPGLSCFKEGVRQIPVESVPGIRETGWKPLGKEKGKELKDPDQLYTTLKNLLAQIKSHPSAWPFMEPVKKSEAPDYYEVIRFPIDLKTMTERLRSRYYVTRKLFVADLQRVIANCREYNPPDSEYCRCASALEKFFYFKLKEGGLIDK
MOLM-13 cells were maintained at 37° C. in 5% CO2 and 90% humidity in RPMI 1640 supplemented with 20% fetal bovine serum (FBS) and 1× penicillin/streptomycin. Cells were plated in full media at 1-2 million cells/2 mL in a 6-well tissue culture treated plate with or without compounds for 24 h at 37° C. in 5% CO2.
MOLM-13 cells or NCI-H1048 cells were washed with PBS, then lysed with RIPA buffer containing 1×protease and phosphatase inhibitors (SantaCruz Biotechnologies Cat #sc-24948A). Protein was isolated by centrifugation at 12,000×g for 10 minutes at 4° C. and supernatant was collected. Protein was quantified via Bradford assay. Samples were diluted to 4 μg lysate in 16 μL RIPA buffer and then 4 μL of Jess Sample Buffer. Samples were heated at 95° C. for 5 minutes. Samples were loaded onto 12-230 kDa Jess™ Separation Module, 8×25 capillary cartridges (SM-W004, Biotechne). Antibodies loaded were: Primary antibody for KAT2A (GCN5L2 (C26A10) Rabbit mAb (3305, CST)) and for KAT2B (PCAF (C14G9)) Rabbit mAb (3378, CST) at 1:1000 and Anti-Rabbit Detection Module for Jess™ (Cat No #DM-001, Biotechne). Signal was detected by chemiluminescence.
DC50 values were determined from percent reduction of protein as compared to the DMSO control.
Background: In western blotting, separated proteins are transferred to a membrane and probed.
As to `CN1C[C@H](Nc2cnn(C)c(=O)c2Cl)C[C@H](c2ccc(C(=O)N3CCC(c4ccc5c(c4)CN(C4CCC(=O)NC4=O)C5=O)CC3)cc2)C1` (stereo partly drawn) [Compound 77], the DC50 fell in the range of 1 to 30 nM.
Take `CN1C[C@H](Nc2cnn(C)c(=O)c2Br)C[C@H](c2ccc(CN3CC(Oc4cccc5c4C(=O)N(C4CCC(=O)NC4=O)C5=O)C3)cc2)C1` (stereo partly drawn) [Compound 64]: the DC50 was in the range of 1 to 30 nM.
As for `CN1C[C@H](Nc2cnn(C)c(=O)c2Br)C[C@H](c2ccc(CN3CC4(C3)CN(c3ccc(C5CCC(=O)NC5=O)cc3)C4)cc2)C1` (stereo partly drawn) [Compound 159], the DC50 was in the range of 1 to 30 nM.
For `CN1C[C@H](Nc2cnn(C)c(=O)c2Br)C[C@H](c2ccc(C(=O)NC3CCN(c4cccc5c4C(=O)N(C4CCC(=O)NC4=O)C5=O)CC3)cc2)C1` (stereo partly drawn) [Compound 15] the value was 1 to 30 nM.
Turning to `CN1C[C@H](Nc2cnn(C)c(=O)c2Cl)C[C@H](c2ccc(CN3CCC(c4cccc5c4CN(C4CCC(=O)NC4=O)C5=O)CC3)cc2)C1` (stereo partly drawn) [Compound 94], the DC50 was over 30 nM.
For the compound `CN1C[C@H](Nc2cnn(C)c(=O)c2Br)C[C@H](c2ccc(C(=O)N3CCN(c4ccc(F)c(C5CCC(=O)NC5=O)c4)CC3)cc2)C1` (stereo partly drawn) [Compound 153], the DC50 is 1 to 30 nM.
With `CN1C[C@H](Nc2cnn(C)c(=O)c2Br)C[C@H](c2ccc(CN3CCC(c4cccc5c4CN(C4CCC(=O)NC4=O)C5=O)CC3)cc2)C1` (stereo partly drawn) [Compound 92], the DC50 lay in the range of 1 to 30 nM.
With `CN1C[C@H](Nc2cnn(C)c(=O)c2Br)C[C@H](c2ccc(CN3CC(Oc4ccc(C5CCC(=O)NC5=O)cc4)C3)cc2)C1` (stereo partly drawn) [Compound 182] the figure was under 1 nM; with `CN1C[C@H](Nc2cnn(C)c(=O)c2Br)C[C@H](c2ccc(CN3CC(c4ccc5c(c4)CN(C4CCC(=O)NC4=O)C5=O)C3)cc2)C1` (stereo partly drawn) [Compound 139], under 1 nM; with `CN1C[C@H](Nc2cnn(C)c(=O)c2Br)C[C@H](c2ccc(CN3CCN(Cc4cccc5c4C(=O)N(C4CCC(=O)NC4=O)C5=O)CC3)cc2)C1` (stereo partly drawn) [Compound 58], 1 to 30 nM.
With `CN1C[C@H](Nc2cnn(C)c(=O)c2Br)C[C@H](c2ccc(C(=O)N3CCN(Cc4ccc(Oc5cccc6c5C(=O)N(C5CCC(=O)NC5=O)C6=O)cc4)CC3)cc2)C1` (stereo partly drawn) [Compound 49] the figure was under 1 nM; with `CN1C[C@H](Nc2cnn(C)c(=O)c2Br)C[C@H](c2ccc(C(=O)N3CCC(c4ccc(CN5CCC(=O)NC5=O)cc4)CC3)cc2)C1` [Compound 136], over 30 nM; with `CN1C[C@H](Nc2cnn(C)c(=O)c2Br)C[C@H](c2ccc(C(=O)N3CC(Oc4cccc(C5CCC(=O)NC5=O)c4)C3)cc2)C1` (stereo partly drawn) [Compound 185], under 1 nM.
As for `CN1C[C@H](Nc2cnn(C)c(=O)c2Br)C[C@H](c2ccc(CN3CCC4(CCN(c5ccc6c(c5)C(=O)N(C5CCC(=O)NC5=O)C6=O)C4)C3)cc2)C1` (stereo partly drawn) [Compound 109], the DC50 was under 1 nM.
`CN1C[C@H](Nc2cnn(C)c(=O)c2Br)C[C@H](c2ccc(C(=O)N3CCN(c4cccc5c4n(C)c(=O)n5C4CCC(=O)NC4=O)CC3)cc2)C1` (stereo partly drawn) [Compound 142]: the DC50 is 1 to 30 nM.
On to `CN1C[C@H](Nc2cnn(C)c(=O)c2Br)C[C@H](c2ccc(C(=O)N3CC4(CCN(c5ccc(C6CCC(=O)NC6=O)cc5)CC4)C3)cc2)C1` (stereo partly drawn) [Compound 144], for which the DC50 was under 1 nM.
In the case of `CN1C[C@H](Nc2cnn(C)c(=O)c2Br)C[C@H](c2ccc(C(=O)N3CCC(CN4CCC(c5ccc6c(c5)C(=O)N(C5CCC(=O)NC5=O)C6=O)CC4)CC3)cc2)C1` (stereo partly drawn) [Compound 107], the DC50 was under 1 nM.
Take `CN1C[C@H](Nc2cnn(C)c(=O)c2Br)C[C@H](c2ccc(C(=O)N3CCC4(CC3)CCN(c3cccc(C5CCC(=O)NC5=O)c3)CC4)cc2)C1` (stereo partly drawn) [Compound 135]: the DC50 was under 1 nM.
For `CN1C[C@H](Nc2cnn(C)c(=O)c2Cl)C[C@H](c2ccc(CN3CCC4(CC3)CCN(c3cccc(C5CCC(=O)NC5=O)c3)CC4)cc2)C1` (stereo partly drawn) [Compound 170] the value was under 1 nM; for `CN1C[C@H](Nc2cnn(C)c(=O)c2Cl)C[C@H](c2ccc(CN3CC(c4ccc5c(c4)CN(C4CCC(=O)NC4=O)C5=O)C3)cc2)C1` (stereo partly drawn) [Compound 141], under 1 nM.
Turning to `C#Cc1c(N[C@@H]2C[C@H](c3ccc(CN4CCC(c5ccc6c(c5)CN(C5CCC(=O)NC5=O)C6=O)CC4)cc3)CN(C)C2)cnn(C)c1=O` (stereo partly drawn) [Compound 171], the DC50 was over 30 nM.
With `CN1C[C@H](Nc2cnn(C)c(=O)c2Br)C[C@H](c2ccc(COc3ccc4c(c3)CN(C3CCC(=O)NC3=O)C4=O)cc2)C1` (stereo partly drawn) [Compound 65] the figure was over 30 nM.
Turning to `CN1C[C@H](Nc2cnn(C)c(=O)c2Br)C[C@H](c2ccc(C(=O)N3CCC4(CC3)CN(c3cccc(C5CCC(=O)NC5=O)c3)C4)cc2)C1` (stereo partly drawn) [Compound 128], the DC50 was 1 to 30 nM.
For `CN1C[C@H](Nc2cnn(C)c(=O)c2Br)C[C@H](c2ccc(C(=O)N3CCN(Cc4cccc5c4C(=O)N(C4CCC(=O)NC4=O)C5=O)CC3)cc2)C1` (stereo partly drawn) [Compound 52], the DC50 is under 1 nM.
Regarding `CN1C[C@H](Nc2cnn(C)c(=O)c2Br)C[C@H](c2ccc(C(=O)N3CCC(Oc4ccc(F)c(C5CCC(=O)NC5=O)c4)CC3)cc2)C1` (stereo partly drawn) [Compound 131], the DC50 was in the range of 1 to 30 nM.
As for `CN1C[C@H](Nc2cnn(C)c(=O)c2Br)C[C@H](c2ccc(C(=O)N3CCC(c4cccc5c4CN(C4CCC(=O)NC4=O)C5=O)CC3)cc2)C1` (stereo partly drawn) [Compound 83], the DC50 lay within 1 to 30 nM.
On to `CN1C[C@H](Nc2cnn(C)c(=O)c2Br)C[C@H](c2ccc(C(=O)N3CCC(F)(CN4CCN(c5ccc6c(c5)C(=O)N(C5CCC(=O)NC5=O)C6=O)CC4)CC3)cc2)C1` (stereo partly drawn) [Compound 112], for which the DC50 is under 1 nM.
As for `CN1C[C@H](Nc2cnn(C)c(=O)c2Br)C[C@H](c2ccc(CN3CCN(c4ccc5c(c4)oc(=O)n5C4CCC(=O)NC4=O)CC3)cc2)C1` (stereo partly drawn) [Compound 180], the DC50 is under 1 nM.
Turning to `CN1C[C@H](Nc2cnn(C)c(=O)c2Br)C[C@H](c2ccc(CN3CCC4(CCN(c5ccc(C6CCC(=O)NC6=O)cc5)C4)C3)cc2)C1` (stereo partly drawn) [Compound 89], the half-maximal degradation concentration (DC50) is under 1 nM.
With `CN1C[C@H](Nc2cnn(C)c(=O)c2Br)C[C@H](c2ccc(CN3CCN(c4cccc5c4CN(C4CCC(=O)NC4=O)C5=O)CC3)cc2)C1` (stereo partly drawn) [Compound 116] the figure was under 1 nM.
As to `CN1C[C@H](Nc2cnn(C)c(=O)c2Br)C[C@H](c2ccc(C(=O)N3CCN(Cc4cccc5c4CN(C4CCC(=O)NC4=O)C5=O)CC3)cc2)C1` (stereo partly drawn) [Compound 79], the DC50 is 1 to 30 nM.
Turning to `CN1C[C@H](Nc2cnn(C)c(=O)c2Br)C[C@H](c2ccc(C(=O)N3CC(Oc4cccc5c4C(=O)N(C4CCC(=O)NC4=O)C5=O)C3)cc2)C1` (stereo partly drawn) [Compound 62], the DC50 was in the range of 1 to 30 nM.
For `CN1C[C@H](Nc2cnn(C)c(=O)c2Br)C[C@H](c2ccc(CN3CCC4(CC3)CCN(c3ccc(C5CCC(=O)NC5=O)c(F)c3)CC4)cc2)C1` (stereo partly drawn) [Compound 156], the DC50 was under 1 nM.
With `CN1C[C@H](Nc2ccn(C)c(=O)c2Cl)C[C@H](c2ccc(COc3ccc4c(c3)C(=O)N(C3CCC(=O)NC3=O)C4=O)cc2)C1` (stereo partly drawn) [Compound 105], the DC50 was 1 to 30 nM.
For `CN1C[C@H](Nc2cnn(C)c(=O)c2Br)C[C@H](c2ccc(COC3CN(c4ccc5c(c4)C(=O)N(C4CCC(=O)NC4=O)C5=O)C3)cc2)C1` (stereo partly drawn) [Compound 117] the value was under 1 nM.
With `CN1C[C@H](Nc2cnn(C)c(=O)c2Br)C[C@H](c2ccc(CN3CCN(Oc4cccc5c4CN(C4CCC(=O)NC4=O)C5=O)CC3)cc2)C1` (stereo partly drawn) [Compound 99] the figure was under 1 nM.

One may read the DC50 as the midpoint of the concentration-degradation curve.
